Source: US11767341B2, “Lincosamide antibiotics and uses thereof” (President and Fellows of Harvard College, priority 2017, dated 2023)
In brackets after ≈: the same amount, converted by molar mass.

test system: S. aureus MP-549 msr(a) USA 300; assay: MIC determination; format: cell-based; conditions: Staphylococcus aureus, USA300, S. aureus MP-549 msr(a) USA 300

`CSC1O[C@H]([C@H](NC(=O)[C@H]2NC[C@@H]3C[C@H](c4ccc(C)cc4)CCO[C@H]32)[C@H](C)Cl)C(O)[C@@H](O)[C@H]1O` (some centres unmarked) [FSA-512079c] and `CSC1O[C@H]([C@H](NC(=O)[C@H]2NC[C@@H]3CC(c4ccc(C)cc4)CCO[C@H]32)[C@H](C)Cl)C(O)[C@@H](O)[C@H]1O` (some centres unmarked) [FSA-511044] are the same in MIC: 0.5 µg/mL (≈ 0.945 µM) for the first, 0.5 µg/mL (≈ 0.945 µM) for the second.

Compound `CSC1O[C@H]([C@H](NC(=O)[C@H]2NC[C@@H]3CCCCO[C@@H]32)[C@H](C)Cl)C(O)[C@@H](O)[C@H]1O` (some centres unmarked) [FSA-504062] has an MIC of 1 µg/mL (≈ 2.28 µM).

test system: K. pneumoniae ATCC 10031; assay: MIC determination; format: cell-based; conditions: Klebsiella pneumoniae, ATCC10031

Going from `CSC1O[C@H]([C@H](NC(=O)[C@H]2NC[C@@H]3C[C@H](c4ccc(C)cc4)CCO[C@H]32)[C@H](C)Cl)C(O)[C@@H](O)[C@H]1O` (some centres unmarked) [FSA-512079c] to `CSC1O[C@H]([C@H](NC(=O)[C@H]2NC[C@@H]3CCCCO[C@@H]32)[C@H](C)Cl)C(O)[C@@H](O)[C@H]1O` (some centres unmarked) [FSA-504062], the MIC rises from 16 µg/mL (≈ 30.2 µM) to greater than 64 µg/mL.

same assay, conditions: Klebsiella pneumoniae, ATCC10031; K. pneumoniae ATCC 10031; read-out: MIC

For `CSC1O[C@H]([C@H](NC(=O)[C@H]2NC[C@@H]3CC(c4ccc(C)cc4)CCO[C@H]32)[C@H](C)Cl)C(O)[C@@H](O)[C@H]1O` (some centres unmarked) [FSA-511044], the MIC was 32 µg/mL (≈ 60.5 µM).

test system: E. coli ATCC 25922; assay: MIC determination; format: cell-based; conditions: Escherichia coli, ATCC25922

For `CSC1O[C@H]([C@H](NC(=O)[C@H]2NC[C@@H]3CCCCO[C@@H]32)[C@H](C)Cl)C(O)[C@@H](O)[C@H]1O` (some centres unmarked) [FSA-504062], the MIC was greater than 64 µg/mL.

same assay, conditions: Escherichia coli, ATCC25922, E. coli ATCC 25922; read-out: MIC

`CSC1O[C@H]([C@H](NC(=O)[C@H]2NC[C@@H]3C[C@H](c4ccc(C)cc4)CCO[C@H]32)[C@H](C)Cl)C(O)[C@@H](O)[C@H]1O` (some centres unmarked) [FSA-512079c] and `CSC1O[C@H]([C@H](NC(=O)[C@H]2NC[C@@H]3CC(c4ccc(C)cc4)CCO[C@H]32)[C@H](C)Cl)C(O)[C@@H](O)[C@H]1O` (some centres unmarked) [FSA-511044] cannot be ordered by MIC: greater than 128 µg/mL for the first, greater than 64 µg/mL for the second.

test system: S. aureus ATCC 29213; assay: MIC determination; format: cell-based; conditions: Staphylococcus aureus, ATCC29213

With `CSC1O[C@H]([C@H](NC(=O)[C@H]2NC[C@@H]3C[C@H](c4ccc(C)cc4)CCO[C@H]32)[C@H](C)Cl)C(O)[C@@H](O)[C@H]1O` (some centres unmarked) [FSA-512079c] the MIC was 0.5 µg/mL (≈ 0.945 µM).

same assay, conditions: Staphylococcus aureus, ATCC29213, S. aureus ATCC 29213; read-out: MIC

Compared with `CSC1O[C@H]([C@H](NC(=O)[C@H]2NC[C@@H]3CCCCO[C@@H]32)[C@H](C)Cl)C(O)[C@@H](O)[C@H]1O` (some centres unmarked) [FSA-504062], `CSC1O[C@H]([C@H](NC(=O)[C@H]2NC[C@@H]3CC(c4ccc(C)cc4)CCO[C@H]32)[C@H](C)Cl)C(O)[C@@H](O)[C@H]1O` (some centres unmarked) [FSA-511044] is 8-fold lower in MIC: 2 µg/mL (≈ 4.56 µM) for the first, 0.25 µg/mL (≈ 0.473 µM) for the second.

test system: S. pneumoniae ATCC 49619; assay: MIC determination; format: cell-based; conditions: Streptococcus pneumoniae, ATCC49619

`CSC1O[C@H]([C@H](NC(=O)[C@H]2NC[C@@H]3CC(c4ccc(C)cc4)CCO[C@H]32)[C@H](C)Cl)C(O)[C@@H](O)[C@H]1O` (some centres unmarked) [FSA-511044] showed an MIC of 0.5 µg/mL (≈ 0.945 µM).

same assay, conditions: Streptococcus pneumoniae, ATCC49619; S. pneumoniae ATCC 49619; read-out: MIC

`CSC1O[C@H]([C@H](NC(=O)[C@H]2NC[C@@H]3CCCCO[C@@H]32)[C@H](C)Cl)C(O)[C@@H](O)[C@H]1O` (some centres unmarked) [FSA-504062] showed an MIC of 0.25 µg/mL (≈ 0.57 µM).

test system: E. coli MP-74 LptD mutant; assay: MIC determination; format: cell-based; conditions: Escherichia coli

`CSC1O[C@H]([C@H](NC(=O)[C@H]2NC[C@@H]3C[C@H](c4ccc(C)cc4)CCO[C@H]32)[C@H](C)Cl)C(O)[C@@H](O)[C@H]1O` (some centres unmarked) [FSA-512079c] and `CSC1O[C@H]([C@H](NC(=O)[C@H]2NC[C@@H]3CC(c4ccc(C)cc4)CCO[C@H]32)[C@H](C)Cl)C(O)[C@@H](O)[C@H]1O` (some centres unmarked) [FSA-511044] are the same in MIC: 16 µg/mL (≈ 30.2 µM) for the first, 16 µg/mL (≈ 30.2 µM) for the second.

`CSC1O[C@H]([C@H](NC(=O)[C@H]2NC[C@@H]3CCCCO[C@@H]32)[C@H](C)Cl)C(O)[C@@H](O)[C@H]1O` (some centres unmarked) [FSA-504062] showed an MIC greater than 64 µg/mL.

test system: H. influenzae ATCC 49247; assay: MIC determination; format: cell-based; conditions: Haemophilus influenzae, ATCC49247

`CSC1O[C@H]([C@H](NC(=O)[C@H]2NC[C@@H]3C[C@H](c4ccc(C)cc4)CCO[C@H]32)[C@H](C)Cl)C(O)[C@@H](O)[C@H]1O` (some centres unmarked) [FSA-512079c] and `CSC1O[C@H]([C@H](NC(=O)[C@H]2NC[C@@H]3CC(c4ccc(C)cc4)CCO[C@H]32)[C@H](C)Cl)C(O)[C@@H](O)[C@H]1O` (some centres unmarked) [FSA-511044] are the same in MIC: 16 µg/mL (≈ 30.2 µM) for the first, 16 µg/mL (≈ 30.2 µM) for the second.

`CSC1O[C@H]([C@H](NC(=O)[C@H]2NC[C@@H]3CCCCO[C@@H]32)[C@H](C)Cl)C(O)[C@@H](O)[C@H]1O` (some centres unmarked) [FSA-504062] showed an MIC greater than 64 µg/mL.

test system: E. faecalis ATCC 29212; assay: MIC determination; format: cell-based; conditions: Enterococcus faecalis, ATCC29212, read-out: MIC

`CSC1O[C@H]([C@H](NC(=O)[C@H]2NC[C@@H]3C[C@H](c4ccc(C)cc4)CCO[C@H]32)[C@H](C)Cl)C(O)[C@@H](O)[C@H]1O` (some centres unmarked) [FSA-512079c] and `CSC1O[C@H]([C@H](NC(=O)[C@H]2NC[C@@H]3CC(c4ccc(C)cc4)CCO[C@H]32)[C@H](C)Cl)C(O)[C@@H](O)[C@H]1O` (some centres unmarked) [FSA-511044] are the same in MIC: 2 µg/mL (≈ 3.78 µM) for the first, 2 µg/mL (≈ 3.78 µM) for the second.

`CSC1O[C@H]([C@H](NC(=O)[C@H]2NC[C@@H]3CCCCO[C@@H]32)[C@H](C)Cl)C(O)[C@@H](O)[C@H]1O` (some centres unmarked) [FSA-504062] was tested, and the MIC was 32 µg/mL (≈ 72.9 µM).

test system: S. pyogenes ATCC 19615; assay: MIC determination; format: cell-based; conditions: Streptococcus pyogenes, ATCC19615; S. pyogenes ATCC 19615; read-out: MIC

`CSC1O[C@H]([C@H](NC(=O)[C@H]2NC[C@@H]3C[C@H](c4ccc(C)cc4)CCO[C@H]32)[C@H](C)Cl)C(O)[C@@H](O)[C@H]1O` (some centres unmarked) [FSA-512079c] and `CSC1O[C@H]([C@H](NC(=O)[C@H]2NC[C@@H]3CC(c4ccc(C)cc4)CCO[C@H]32)[C@H](C)Cl)C(O)[C@@H](O)[C@H]1O` (some centres unmarked) [FSA-511044] cannot be ordered by MIC: no more than 0.12 µg/mL for the first, no more than 0.06 µg/mL for the second.

Work on `CSC1O[C@H]([C@H](NC(=O)[C@H]2NC[C@@H]3CCCCO[C@@H]32)[C@H](C)Cl)C(O)[C@@H](O)[C@H]1O` (some centres unmarked) [FSA-504062] yielded an MIC of 0.12 µg/mL (≈ 0.273 µM).

test system: E. coli MP-9 ΔTolC; assay: MIC determination; format: cell-based; conditions: Escherichia coli

Compared with `CSC1O[C@H]([C@H](NC(=O)[C@H]2NC[C@@H]3C[C@H](c4ccc(C)cc4)CCO[C@H]32)[C@H](C)Cl)C(O)[C@@H](O)[C@H]1O` (some centres unmarked) [FSA-512079c], `CSC1O[C@H]([C@H](NC(=O)[C@H]2NC[C@@H]3CC(c4ccc(C)cc4)CCO[C@H]32)[C@H](C)Cl)C(O)[C@@H](O)[C@H]1O` (some centres unmarked) [FSA-511044] is 2-fold higher in MIC: 8 µg/mL (≈ 15.1 µM) for the first, 16 µg/mL (≈ 30.2 µM) for the second.

In the case of `CSC1O[C@H]([C@H](NC(=O)[C@H]2NC[C@@H]3CCCCO[C@@H]32)[C@H](C)Cl)C(O)[C@@H](O)[C@H]1O` (some centres unmarked) [FSA-504062], the MIC is reported as greater than 64 µg/mL.
